Values after ≈ are worked out from the molar mass of the structure shown. Read-outs that look alike come from different tables or passages of the source.

These results are taken from article PMC6225126, “Inhibitory Effects of Bioassay-Guided Isolation of Anti-Glycation Components from Taraxacum coreanum and Simultaneous Quantification” (Molecules : A Journal of Synthetic Chemistry and Natural …, 2018).

In assay [1] the test system is advanced glycation end-product (AGE) formation in BSA/glucose system. In words: Inhibition of AGE formation in BSA-glucose system (fluorescence). The format is biochemical, bovine. The method, then:
Inhibition of AGE formation in BSA-glucose system was determined using the spectrophotometric method described previously. All test samples were dissolved in 10% DMSO. […] This mixture was incubated at 60 °C for 2 days. […] We used AG as a positive control. Three replicate samples were run for each set. The inhibitory activity on AGE formation was calculated using the following formula: {(Ac − As)/Ac} × 100, where Ac is fluorescence of the control, and As is the fluorescence of the sample.

For assay [2], the system named is advanced glycation end-product (AGE) formation in BSA/MGO system. In words: Inhibition of AGE formation in BSA-MGO system (fluorescence). It is filed as biochemical, bovine. Particulars: BSA 1 mg/mL, 7 mM MGO, 60 °C, 2 days, mean ± SD, n = 3; for IC50: isolated compounds. The protocol: The inhibitory effect on protein glycation induced by MGO (40% aqueous solution) and the main reactive intermediate compound formed in Maillard reaction were evaluated. All test samples were dissolved in 10% DMSO. […] This mixture was incubated at 60 °C for 2 days. […] We used AG as a positive control. Three replicate samples were run for each set. The inhibitory activity was calculated using the same equation applied in BSA-glucose assay.

Assay [3] has as its target T1, α-glucosidase from Saccharomyces cerevisiae (Saccharomyces cerevisiae, UniProt P53341).
T1 construct: purchased Sigma-Aldrich Chemical Company (St. Louis, MO, USA)
In words: biochemical. It is filed as biochemical. The method, then:
Methanol (MeOH), ethanol (EtOH), Hx, DCM, EA, BuOH, and distilled water were used for extraction, fractionation, and open column chromatography. Sephadex LH-20 (25–100 μm; Pharmacia, Stockolm, Sweden), MCI CHP 20P (Supelco, St. Louis, MO, USA), and ODS gel (400–500 mesh; Waters, Milford, MA, USA) were used for open column chromatography. Dimethyl sulfoxide-d6 (DMSO-d6) and methanol-d4 (CD3OD) were used as solvents for NMR analysis. Molecular weight was determined by using ultrahigh performance liquid chromatography and high-resolution mass spectrometry (UHPLC-HRMS) coupled with electrospray ionization hybrid linear trap-quadruple-Orbitrap MS (ESI/LTQ-Orbitrap) using an Ultimate 3000 RSLC (Thermo, Darmstadt, Germany). ^1H-nuclear magnetic resonance (NMR) spectra were recorded at 600 MHz and ^13C-NMR spectra were recorded at 150 MHz on a JEOL spectrometer. The chemical shifts are expressed in parts per million (ppm) on the δ scale and as coupling constants (J) in Hertz. […] A Waters Kromasil C18 (4.6 × 250 mm, 5 μm) column was used as the separation column. HPLC-grade solvents, such as MeOH and distilled water (H2O), were purchased from J. T. Baker® (Phillipsburg, PA, USA). HPLC-grade phosphoric acid was obtained from DEAJUNG Chemical (Siheung, Gyeonggi, Korea).
This assay was performed using a 96-well microplate reader and a spectrophotometer. […] A chromogenic substance was used for quantification purposes. After the addition of mixture solution to each well, 10 mM phosphate buffer (20 µL, pH 6.8) containing 0.2 U/mL α-glucosidase was added. This mixture was incubated at 37 °C for 15 min. The reaction was stopped by adding 80 µL of 0.2 mol/L sodium carbonate solution. […] Three replicate samples were run for each set. The inhibitory activity was calculated using the equation applied in BSA-glucose assay, but absorbance was measured instead of fluorescence.

Setting [4] is: isolated compounds, BSA 10 mg/mL, 0.4 M D-fructose and D-glucose, 60 °C, 2 days, mean ± SD, n = 3, read-out: IC50 BSA/Glucose (AGE formation).
Setting [5] is: isolated compounds, 2.5 mM p-NPG, pH 6.8, 37 °C, 15 min, mean ± SD, n = 3.
Where [6] appears, read: isolated compounds, 2.5 mM p-NPG, pH 6.8, 37 °C, 15 min, mean ± SD, n = 3, read-out: IC50 α-Glucosidase.
The mark [7] stands for this setting: isolated compounds, read-out: IC50 α-glucosidase activity.

T1 sequence (P53341 whole entry): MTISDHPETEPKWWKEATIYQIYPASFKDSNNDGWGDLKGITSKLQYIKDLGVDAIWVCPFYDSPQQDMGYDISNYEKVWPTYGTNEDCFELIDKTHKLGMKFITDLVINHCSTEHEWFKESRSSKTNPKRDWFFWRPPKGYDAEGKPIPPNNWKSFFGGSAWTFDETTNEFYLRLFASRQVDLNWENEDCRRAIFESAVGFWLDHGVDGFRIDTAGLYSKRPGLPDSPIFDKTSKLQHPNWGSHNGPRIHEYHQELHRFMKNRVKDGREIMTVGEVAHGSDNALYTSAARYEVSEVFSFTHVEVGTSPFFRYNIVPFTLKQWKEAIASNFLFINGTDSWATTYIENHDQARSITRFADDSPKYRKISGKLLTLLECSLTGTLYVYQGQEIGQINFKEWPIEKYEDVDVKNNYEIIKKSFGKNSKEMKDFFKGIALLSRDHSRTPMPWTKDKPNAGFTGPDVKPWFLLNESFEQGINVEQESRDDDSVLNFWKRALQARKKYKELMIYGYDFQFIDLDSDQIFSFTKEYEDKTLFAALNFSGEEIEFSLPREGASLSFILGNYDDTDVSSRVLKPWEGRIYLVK

For chicoric acid [Compound 11], the values for the IC50 in assay [1] (setting [4]) and in assay [2] were 64.7 ± 16.7 µM and 141 ± 8.76 µM, respectively.
On to `O=c1cc(-c2cc(O)c(O)cc2OC2OCC(O)C(O)C2O)oc2cc(OC3OC(CO)C(O)C(O)C3O)cc(O)c12` (stereo not drawn) [Compound 6, isoetin-7-glucoside-2′-arabinoside], for which the “IC50 α-Glucosidase” value in assay [3] (setting [5]) was “no inhibitory activity”. Further, the IC50 in assay [1] (setting [4]) was determined as 238 ± 13.8 µM; in assay [2], 148 ± 36.3 µM.
For `O=C(/C=C/c1ccc(O)c(O)c1)O[C@@H]1C[C@](O)(C(=O)O)C[C@@H](O)[C@H]1O` [Compound 10, chlorogenic acid], in assay [2], the IC50 turned out to be 138 ± 1.91 µM.
`O=c1cc(-c2cc(O)c(O)cc2OC2OCC(O)C(O)C2O)oc2cc(OC3OC(CO)C(O)C(O)C3O)cc(O)c12` (stereo not drawn) [Compound 5, isoetin-7-glucoside-2′-xyloside]: in assay [3] (setting [5]), the “IC50 α-Glucosidase” value is reported as “no inhibitory activity”. Besides, the figures for the IC50 in assay [1] (setting [4]) and in assay [2] were 268 ± 3.41 µM and 130 ± 28.3 µM, respectively.
For `N=C(N)NN` [AMG, aminoguanidine, reference compound], the “IC50 BSA/Glucose (AGE formation)” value in assay [1] (extracts and fractions, BSA 10 mg/mL, 0.4 M D-fructose and D-glucose, 60 °C, 2 days, mean ± SD, n = 3) was 218.57 ± 24.38 µg/mL (≈ 2950 µM). Further, the IC50 in assay [1] (setting [4]) came out at 602 ± 50.4 µM; in assay [2], 295 ± 42.7 µM. Also, the “IC50 BSA/MGO (AGE formation)” value in assay [2] (extracts and fractions) was 67.51 ± 5.27 µg/mL (≈ 911 µM).
Take 1-caffeoylglycerol [Compound 8]: the IC50 was 2951 ± 3.94 µM in assay [3] (setting [6]), 2951 ± 3.94 µM in assay [3] (setting [7]), 307 ± 10.2 µM in assay [1] (setting [4]) and 152 ± 65.4 µM in assay [2].
With `O=C(O)/C=C/c1ccc(O)c(O)c1` [Compound 7, caffeic acid], the values for the IC50 in assay [3] (setting [6]), in assay [1] (setting [4]) and in assay [2] were 5130 ± 804 µM, 324 ± 8.29 µM and 79.7 ± 23.4 µM, respectively.
With `CC1OC(OCC2OC(Oc3cc(O)c4c(=O)cc(-c5ccc(O)c(O)c5)oc4c3)C(O)C(O)C2O)C(O)C(O)C1O` (stereo not drawn) [Compound 4, luteolin-7-rutinoside], the IC50 was 671 ± 50.8 µM in assay [3] (setting [7]), 253 µM in assay [1] (setting [4]) and 136 ± 2.64 µM in assay [2].
Regarding `O=c1cc(-c2ccc(O)c(O)c2)oc2cc(O)cc(O)c12` [Compound 1, luteolin], the “IC50 α-Glucosidase” value in assay [3] (setting [5]) is given as “no inhibitory activity”. For the same compound, the IC50 in assay [1] (setting [4]) is 236 ± 9.11 µM; in assay [2] it was 66.1 ± 17.1 µM.
As to `O=c1cc(-c2ccc(OC3OC(CO)C(O)C(O)C3O)c(O)c2)oc2cc(O)cc(O)c12` (stereo not drawn) [Compound 3, luteolin-4′-glucoside], the IC50 in assay [3] (setting [7]) came out at 598 ± 147 µM; in assay [1] (compound 3, unit as printed in running text b17, read-out: IC50 AGE formation in BSA-glucose system), 423 ± 18 µM; in assay [1] (setting [4]) it was 423 ± 18 µM; in assay [2], 90.8 ± 21.7 µM.
Turning to `O=c1cc(-c2ccc(O)c(O)c2)oc2cc(OC3OC(CO)C(O)C(O)C3O)cc(O)c12` (stereo not drawn) [Compound 2, luteolin-7-glucoside], the IC50 in assay [3] came to 1460 ± 162 µM; in assay [1] (setting [4]) it was 123 ± 2.02 µM; in assay [2], 108 ± 8.14 µM.
